Test results reported in patent US9809532B2, “Uses of histone acetyltransferase activators” (THE TRUSTEES OF COLUMBIA UNIVERSITY IN THE CITY OF NEW YORK, priority 2011, dated 2017).
Where “and” joins values, the source holds several entries; their conditions need not be identical. Equal entries are not always repeated.

Tests used:
Sirtuin 2 = target: T1, Sirtuin 2 (Homo sapiens, UniProt Q8IXJ6); assay: Sirtuin 2 activity assay (fluorescence); conditions: Compound 1 Log [nM] 4.0; Repeat1/Repeat2
T1 sequence (Q8IXJ6 1-389): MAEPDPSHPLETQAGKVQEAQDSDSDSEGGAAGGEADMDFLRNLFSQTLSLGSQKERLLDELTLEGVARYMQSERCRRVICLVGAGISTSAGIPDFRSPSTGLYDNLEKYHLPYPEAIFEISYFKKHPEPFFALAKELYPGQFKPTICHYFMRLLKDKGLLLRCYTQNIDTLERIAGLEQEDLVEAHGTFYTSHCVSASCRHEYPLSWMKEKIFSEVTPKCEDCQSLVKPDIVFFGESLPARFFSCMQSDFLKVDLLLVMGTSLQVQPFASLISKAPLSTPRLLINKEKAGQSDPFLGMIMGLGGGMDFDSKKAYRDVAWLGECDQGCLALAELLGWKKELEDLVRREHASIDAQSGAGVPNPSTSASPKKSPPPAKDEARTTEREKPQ

[1] = system: histone lysines H3K4, H3K9, H3K14, H4K5, H4K8, H4K12, H4K16, and H2B; assay: Histone acetylation in mouse hippocampus (WB analysis); format: in vivo; conditions: for acetylation of histone lysines (H3, H4, H2B) in hippocampus: 20 mg/Kg i.p., 30 min, FIG. 22
Description: The compound was i.p. administered at 20 mg/Kg, mice were sacrificed 30 min later, and hippocampi were removed and quickly frozen for WB analysis.

[2] = Kinetics in blood sampled from tails; format: in vivo, mice; conditions: 20 mg/kg i.p.
human PCAF = human PCAF (Homo sapiens, UniProt Q92831); assay: PCAF activation, in vitro assay; format: biochemical
wild-type mice = assay: Contextual fear conditioning; format: in vivo; conditions: for freezing 24 h after training: vs WT vehicle mice, single tone pairing with 0.35 mA foot shock
Description: Contextual fear conditioning was performed to assess whether compound 1 is capable of enhancing memory. This type of cognitive test is much faster than other behavioral tasks that require multiple days of training and testing (J Clin Invest, 2004. 114(11): 1624-34; herein incorporated by reference in its entirety). The conditioning chamber was in a sound-attenuating box. A clear Plexiglas window allowed the experimenter to film the mouse performance with a camera placed on a tripod and connected to the Freezeframe software (MED Ass. Inc.). To provide background white noise (72 dB), a single computer fan was installed in one of the sides of the sound-attenuating chamber. […] The floor was removable, and after each experimental subject, it was cleaned with 75% ethanol and then with water. Only one animal at a time was present in the experimentation […].
[…] The mice remained in the chamber for an additional 30 sec after the end of the last pairing, after which they were returned to their home cages. Contextual fear conditioning was assayed 24 hr after training by replacing the animals in the conditioning context for a 5 min period, during which the incidence of freezing (immobile except for respiration) was recorded. […]
Freezing behavior, defined as the absence of all movement except for that necessitated by breathing, was scored using the Freezeview software.
To evaluate contextual fear learning, freezing was measured for 5 min (consecutively) in the chamber in which the mice was trained 24 hr after training. To evaluate cued fear learning, following contextual testing, the mice were placed in a novel context (triangular cage with smooth flat floor) for 2 min (pre-CS test), after which they were exposed to the CS for 3 min (CS test), and freezing was measured. Sensory perception of the shock was determined through threshold assessment. […] Initially, a […] shock was delivered for 1 sec, and the animal behavior was evaluated for flinching, jumping, and vocalization. […]

HDAC5FL = HDAC5FL (Homo sapiens, UniProt Q9UQL6); assay: HDAC5FL activity assay (fluorescence)
Chain of HDAC5FL (Q9UQL6 whole entry): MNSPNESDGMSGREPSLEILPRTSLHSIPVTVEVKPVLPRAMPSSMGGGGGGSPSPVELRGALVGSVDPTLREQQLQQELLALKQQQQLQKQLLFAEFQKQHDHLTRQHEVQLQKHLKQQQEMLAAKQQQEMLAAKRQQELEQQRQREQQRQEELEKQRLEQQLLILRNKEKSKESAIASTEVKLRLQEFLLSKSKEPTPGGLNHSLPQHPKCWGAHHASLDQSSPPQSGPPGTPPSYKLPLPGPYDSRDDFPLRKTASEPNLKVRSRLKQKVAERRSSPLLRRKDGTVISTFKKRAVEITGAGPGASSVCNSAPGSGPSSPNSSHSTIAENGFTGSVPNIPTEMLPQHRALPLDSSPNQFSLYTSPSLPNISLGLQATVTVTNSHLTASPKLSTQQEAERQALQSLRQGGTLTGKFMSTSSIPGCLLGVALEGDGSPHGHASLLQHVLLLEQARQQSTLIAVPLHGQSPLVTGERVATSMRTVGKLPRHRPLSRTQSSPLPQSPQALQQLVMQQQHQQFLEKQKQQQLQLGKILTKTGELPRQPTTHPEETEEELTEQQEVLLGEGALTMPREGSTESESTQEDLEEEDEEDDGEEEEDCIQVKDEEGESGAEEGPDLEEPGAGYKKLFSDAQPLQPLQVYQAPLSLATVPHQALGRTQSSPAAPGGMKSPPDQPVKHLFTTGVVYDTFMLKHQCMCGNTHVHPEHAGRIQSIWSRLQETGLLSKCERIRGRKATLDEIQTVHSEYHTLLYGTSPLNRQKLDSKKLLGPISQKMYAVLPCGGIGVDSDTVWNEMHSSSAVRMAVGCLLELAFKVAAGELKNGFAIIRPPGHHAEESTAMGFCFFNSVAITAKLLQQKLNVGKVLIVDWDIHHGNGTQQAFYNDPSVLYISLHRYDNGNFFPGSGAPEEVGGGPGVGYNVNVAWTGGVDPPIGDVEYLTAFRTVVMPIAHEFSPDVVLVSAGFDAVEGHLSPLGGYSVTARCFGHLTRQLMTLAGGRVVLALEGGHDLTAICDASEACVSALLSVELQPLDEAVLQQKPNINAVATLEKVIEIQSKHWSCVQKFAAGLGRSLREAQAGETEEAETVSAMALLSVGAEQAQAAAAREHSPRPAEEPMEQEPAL

Chain of human PCAF (Q92831 whole entry): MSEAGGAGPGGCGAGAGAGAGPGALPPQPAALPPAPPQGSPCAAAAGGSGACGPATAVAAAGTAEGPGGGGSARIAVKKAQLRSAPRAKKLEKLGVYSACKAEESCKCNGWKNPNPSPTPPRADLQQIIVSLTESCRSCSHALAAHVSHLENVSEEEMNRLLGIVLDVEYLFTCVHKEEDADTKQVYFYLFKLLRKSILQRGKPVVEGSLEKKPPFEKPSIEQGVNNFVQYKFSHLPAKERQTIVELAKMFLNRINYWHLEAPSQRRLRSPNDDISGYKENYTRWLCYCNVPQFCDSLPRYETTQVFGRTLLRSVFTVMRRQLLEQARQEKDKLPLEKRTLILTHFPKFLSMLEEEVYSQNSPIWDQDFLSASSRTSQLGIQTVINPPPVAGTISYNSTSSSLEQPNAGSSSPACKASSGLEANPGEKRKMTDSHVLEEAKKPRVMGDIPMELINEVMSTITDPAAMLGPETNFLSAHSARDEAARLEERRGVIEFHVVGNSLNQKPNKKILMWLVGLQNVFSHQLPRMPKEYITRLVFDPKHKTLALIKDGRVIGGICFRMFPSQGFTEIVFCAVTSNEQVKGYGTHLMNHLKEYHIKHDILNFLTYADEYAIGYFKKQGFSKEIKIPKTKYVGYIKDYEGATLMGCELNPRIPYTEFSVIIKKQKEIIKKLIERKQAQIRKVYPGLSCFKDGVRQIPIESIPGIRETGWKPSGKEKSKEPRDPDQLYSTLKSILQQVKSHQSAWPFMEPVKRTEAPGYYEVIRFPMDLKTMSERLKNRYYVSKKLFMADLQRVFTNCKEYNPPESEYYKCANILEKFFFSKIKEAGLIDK

CCOc1cccc(OCCN(C)C)c1C(=O)Nc1ccc(Cl)c(C(F)(F)F)c1 [Compound 1]
% Activity (Sirtuin 2) (Sirtuin 2): 97.71% | acetylation of histone lysines (H3, H4, H2B) in hippocampus [1]: increased acetylation of histone lysines | acetylation of histone lysines (H3, H4, H2B) in hippocampus ([1]; listed as YF2): increased specific acetylation of H3, H4, and H2B | crossing of the BBB ([1]; i.p., western blot, FIG. 21): crosses the BBB | histone 3 acetylation levels of the hippocampus ([1]; i.p., western blot, FIG. 21): increases histone 3 acetylation levels | time of peak in blood post-injection [2]: around 30 minutes | EC50 (human PCAF): 29 µM and 18.1 µM | freezing 24 h after training (wild-type mice; 5 mg/kg): froze nearly twice as often | freezing 24 h after training (wild-type mice; 20 mg/kg): froze nearly twice as often | memory effect (wild-type mice; weaker training protocol): worked as a memory enhancer | IC50 (HDAC5FL): > 200 µM | % Activity (HDAC5FL) (HDAC5FL; Compound 1 Log [nM] 3.0, Repeat1/Repeat2): 99.80%
